Nine compounds from ChEMBL document CHEMBL1121659 (J Med Chem, 1981) can be followed below.

The nature of data set [1]: Compound was evaluated for the biliary excretion in the anesthetized rats in 6 hours after intravenous doses 1 mg/kg. Format: ADME, organism-based. Also on record: dose 1 mg/kg, route intravenous. As to conditions: rat, bile, read-out: Excretion.
Data set [2] in a line: Compound was evaluated for the biliary excretion in the anesthetized rats in 6 hours after intravenous doses 10 mg/kg. Format: ADME, organism-based. Also on record: dose 10 mg/kg, route intravenous. As to conditions: rat, bile, read-out: Excretion.
Data set [3] is described as follows: Compound was evaluated for the biological half-life in rat after a dose of 10 mg/kg given intravenously. The format is ADME, organism-based. The arrangement: dose 10 mg/kg, route intravenous. As to conditions: in vivo, iv.
The test system of data set [4] is Mus musculus. The data set can be described thus: Compound was evaluated for the dose required for protection against MES-induced seizures after 4 hours of intraperitoneal administration. Format: functional.
The test system of data set [5] is Mus musculus. The data set can be described thus: Compound was evaluated for the dose required for protection against scMET-induced seizures after 4 hours of intraperitoneal administration. The format is functional.
For data set [6], the system named is Mus musculus. The data set can be described thus: Compound was evaluated for the biological half-life in mouse after a dose of 40 mg/kg given intraperitoneally. As to conditions: in vivo, ip.
Data set [7] deals with Mus musculus. The data set can be described thus: Compound was evaluated for the dose required for protection against MES-induced seizures after 4 hours of intraperitoneal administration at the doses< = 0.77-0.90 mM/kg; Inactive. The format is functional, organism-based.
For data set [8], the system named is Mus musculus. The data set can be described thus: Compound was evaluated for the neuro toxicity up to 4 hours after doses of <=300 mg/kg administered intraperitoneally; No toxicity. Format: organism-based. As to conditions: in vivo, ip.
Data set [9] concerns Mus musculus. The data set can be described thus: Compound was evaluated for the dose required for protection against MES-induced seizures after 4 hours of intraperitoneal administration; Inactive. Format: functional, organism-based.
In data set [10] the test system is Mus musculus. The data set can be described thus: Compound was evaluated for the dose required for protection against scMET-induced seizures after 4 hours of intraperitoneal administration; Inactive. The format is functional, organism-based.
For data set [11], the system named is Mus musculus. The data set can be described thus: Compound was evaluated for the dose required for protection against scMET-induced seizures after 4 hours of intraperitoneal administration at the doses< = 0.77-0.90 mM/kg; Inactive. The format is functional, organism-based.

The source made the active and inactive calls. The calls are words filed in the database; no cut-off is given here.

By half-life is commonly meant the time in which the quantity being followed falls by half. Low values mean rapid decline, high ones slow decline. `O=C1NC(=O)C(c2ccccc2)(c2ccccc2)N1` [PHENYTOIN]: the dose excreted at 6 h was determined as 54% in data set [1] and 28% in [2]. The compound further gave a half-life in data set [3] of 30 min. This compound returned an Activity in the data set with Mus musculus [4] of 0.038 mmol/kg. Moreover, in the data set on Mus musculus [5], the result was inactive. Also, in the data set on Mus musculus [6], the T1/2 is 990 min.
`O=C1NC(=O)C(c2cccc(C(F)(F)F)c2)(c2cccc(C(F)(F)F)c2)N1`: in the data set with Mus musculus [7], the outcome was inactive. The compound also gave an Activity with Mus musculus [5] of 2.6 mmol/kg. Besides, the Neurotoxicity result with Mus musculus [8] is “No toxicity”.
With `O=C1NC(=O)C(c2ccc(C(F)(F)F)cc2)(c2cccc(C(F)(F)F)c2)N1` (centres undefined), the result with Mus musculus [9] and with Mus musculus [10] was inactive. The Neurotoxicity result with Mus musculus [8] is reported as “No toxicity”.
`O=C1NC(=O)C(c2ccccc2)(c2ccc(C(F)(F)F)cc2)N1` (centres undefined) showed an Activity in the data set on Mus musculus [4] of 0.94 mmol/kg. The result in the data set on Mus musculus [11] was inactive. The Neurotoxicity result in the data set on Mus musculus [8] is “No toxicity”.
In the case of `Cc1ccc(C2(c3ccc(C(F)(F)F)cc3)NC(=O)NC2=O)cc1` (centres undefined), the result with Mus musculus [9] and in the data set with Mus musculus [10] was inactive. Also, the Neurotoxicity result in the data set on Mus musculus [8] is “No toxicity”.
Consider `Cc1ccc(C2(c3cccc(C(F)(F)F)c3)NC(=O)NC2=O)cc1` (stereo in doubt; 7), for which the result in the data set on Mus musculus [9] and with Mus musculus [10] was inactive. The Neurotoxicity result in the data set on Mus musculus [8] is listed as “No toxicity”.
As for `O=C1NC(=O)C(c2ccccc2)(c2cccc(C(F)(F)F)c2)N1` (centres undefined), in the data set on Mus musculus [4], the Activity stood at 0.31 mmol/kg. In addition, the result in the data set on Mus musculus [11] was inactive. The Neurotoxicity entry in the data set with Mus musculus [8] is on record as “No toxicity”.
Take `Cc1cccc(C2(c3cccc(C(F)(F)F)c3)NC(=O)NC2=O)c1` (stereo in doubt; 9): the outcome with Mus musculus [9] and in the data set with Mus musculus [10] was inactive.
On to `Cc1cccc(C2(c3ccc(C(F)(F)F)cc3)NC(=O)NC2=O)c1` (centres undefined), for which the result in the data set with Mus musculus [9] and in the data set on Mus musculus [10] was inactive. Further, the Neurotoxicity result in the data set on Mus musculus [8] was “No toxicity”.
